Drawing on patent US20070249732A1, “USE OF CERTAIN PHENYL NAPTHYL COMPOUNDS FOR PROTECTION OF NEURONS AND OLIGODENDROCYTES IN THE TREATMENT OF MULTIPLE SCLEROSIS (MS)” (AVENTIS PHARMACEUTICALS INC., priority 2005, published 2007), this text covers IC50 for one molecule.

Read-outs that look alike come from different tables or passages of the source.

For experiment [1], the system named is primary rat oligodendrocyte progenitor cells. Nature of the experiment: Oligodendrocyte Toxicity Assay (LDH), progenitor cells. Particulars: Oligodendrocyte progenitor cell, 1 hour pretreatment, LDH after 24 hours. The class given is cell-based. Here is the method: (§1) Primary rat oligodendrocyte progenitor cells were obtained from the cerebra of 2-3 day old postnatal rats (Sprague Dawley). The meninges were removed and tissue was mechanically dissociated. Cells were plated on T75 flasks and fed with DMEM +10% FBS.
(§2) Enriched OLPs were collected by mechanical separation from the astrocytic monolayer and were expanded in serum free media (SFM) supplemented with the mitogens, PDGF-AA (10 ng/mI) and FGF-2 (10 ng/mI).
Cells were plated in 96-well plates, 10,000 per well. Medium was changed to fresh medium and cells were pretreated with compounds for 1 hour. Toxins were added to give the following final concentrations: Sin-110 mM, Camptothecin 1 μM
(§3) After 24 hours, medium was removed and assayed for LDH activity using the Promega cytotox 96 kit (catalog# G1780). Results were calculated as percent protection against toxin-induced toxicity.
(§4) These compounds have been assessed for their efficacy in protection against cell death produced by toxic agents such as SIN-1 (3-morpholino-sydnonimine, producing peroxynitrite) and camptothecin. The target cells assessed in vitro are primary cultures of rodent oligodendrocyte progenitors and their mature counterparts.

For experiment [2], the target named is T1, ERβ (Homo sapiens, UniProt Q92731).
T1 construct: purchased Panvera P2700
T1 sequence (Q92731 whole entry): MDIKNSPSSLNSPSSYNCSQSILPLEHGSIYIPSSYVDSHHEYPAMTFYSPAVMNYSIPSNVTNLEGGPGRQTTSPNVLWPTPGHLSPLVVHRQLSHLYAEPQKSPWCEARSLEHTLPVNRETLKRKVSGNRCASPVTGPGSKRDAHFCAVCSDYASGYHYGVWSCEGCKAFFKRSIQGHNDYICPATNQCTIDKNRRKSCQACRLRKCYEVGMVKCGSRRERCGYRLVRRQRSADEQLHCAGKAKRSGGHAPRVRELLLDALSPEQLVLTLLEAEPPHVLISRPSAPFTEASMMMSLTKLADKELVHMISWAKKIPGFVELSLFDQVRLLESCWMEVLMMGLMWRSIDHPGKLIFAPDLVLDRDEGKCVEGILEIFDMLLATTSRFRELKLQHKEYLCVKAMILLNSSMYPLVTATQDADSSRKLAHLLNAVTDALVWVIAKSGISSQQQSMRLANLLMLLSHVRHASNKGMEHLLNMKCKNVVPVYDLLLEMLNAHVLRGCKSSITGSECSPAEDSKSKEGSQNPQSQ
The experiment is described as follows: Fluorescence Polarization Competition Assay, ERβ binding affinity. Particulars: Fluormone ligand, read-out: Affinity for ER β. Here is the method: (§5) A number of compounds were tested for ERα and ERβ binding affinity using Panvera's Fluorescence Polarization Competition Assay Kits (cat. nos. P2698 and P2700). Briefly, ERα or ERβ were thawed on ice from −80° C. An estrogen receptor and fluorescent ligand (Fluormone TM) complex was formed at a 15/1 molar ratio for ERα and at a 10/1 molar ratio for ERβ (2X complex). Serial dilutions of the test compounds were made in assay buffer and the assay was initiated by adding 50 ul of the 2X receptor-ligand complex to 50 ul of compound solution in black 96-well plates. Zero percent competition (theoretical maximum polarization) was measured in wells containing 50 ul of buffer and 50 ul of the 2X receptor-ligand complex. The plates were incubated after gentle shaking in the dark at room temperature. Polarization values (mP) were read no longer than 7 hours after the reaction was started with a FARCyte Fluorescent reader (Amersham) at excitation and emission wavelengths of 485 nm and 535 nm, respectively. Data was analyzed using non-linear regression and IC50 values determined using GraphPad Prism. Estradiol was used as the reference compound.
For orientation: Fluorescence polarisation rises when a labelled molecule tumbles more slowly, as on binding a larger partner.

In experiment [3] the test system is mature oligodendrocytes. The experiment is described as follows: Oligodendrocyte Toxicity Assay (LDH), mature oligodendrocytes. The class given is cell-based. Particulars: Rattus norvegicus; protection against SIN-1-induced toxicity; 1 hour pretreatment, LDH after 24 hours. Here is the method: as §1, §2
To generate mature oligodendrocytes, progenitor cells were switched to SFM supplemented with IGF-1 (10ng/ml) 24 hours after plating and cells were grown under these conditions for 7 days prior to experimental assays.
Cells were plated in 96-well plates, 10,000 per well. Medium was changed to fresh medium and cells were pretreated with compounds for 1 hour. […]
as §3, §4

The target in experiment [4] is T2, ERα (Homo sapiens, UniProt P03372).
T2 construct: purchased Panvera P2698
T2 sequence (P03372 1-595): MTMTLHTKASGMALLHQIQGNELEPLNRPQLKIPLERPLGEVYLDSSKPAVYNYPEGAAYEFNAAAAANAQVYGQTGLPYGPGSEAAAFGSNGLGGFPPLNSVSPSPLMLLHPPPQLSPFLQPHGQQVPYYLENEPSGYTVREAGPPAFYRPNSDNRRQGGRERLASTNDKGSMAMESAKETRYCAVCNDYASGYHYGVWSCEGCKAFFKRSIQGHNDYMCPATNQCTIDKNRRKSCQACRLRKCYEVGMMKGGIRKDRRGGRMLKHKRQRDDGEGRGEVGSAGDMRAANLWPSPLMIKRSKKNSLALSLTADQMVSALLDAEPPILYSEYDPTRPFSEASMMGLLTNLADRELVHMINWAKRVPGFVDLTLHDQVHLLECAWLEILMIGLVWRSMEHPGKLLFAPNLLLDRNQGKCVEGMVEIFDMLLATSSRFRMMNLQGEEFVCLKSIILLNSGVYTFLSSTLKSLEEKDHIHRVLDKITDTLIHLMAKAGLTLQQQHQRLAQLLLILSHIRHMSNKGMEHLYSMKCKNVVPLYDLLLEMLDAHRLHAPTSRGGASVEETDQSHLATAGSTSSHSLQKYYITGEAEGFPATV
Nature of the experiment: Fluorescence Polarization Competition Assay, ERα binding affinity. Particulars: Fluormone ligand, read-out: Affinity for ER α. Here is the method:
as §5

For the molecule `Oc1ccc(-c2ccc3cc(O)ccc3c2Cl)cc1` [5-chloro-6-(4-hydroxyphenyl)-2-naphthalenol], the IC50 is 2170 nM in experiment [1] (protection against SIN-1-induced toxicity, read-out: Progenitor Oligodendrocytes SIN-1 IC50); < 3000 nM in experiment [1] (protection against camptothecin (1 μM)-induced toxicity, read-out: Progenitor Oligodendrocytes Camptothecin IC50); 3 nM in experiment [2]; > 30000 nM in experiment [3]; 35.4 nM in experiment [4].
